From US4160829A, “Antibacterial 1,2,4-oxadiazolylacetamido cephalosporins” (Gist-Brocades N.V., priority 1972, dated 1979)
≈ marks a conversion by molar mass, not a printed value. Like-named read-outs stand apart in the source and are kept apart here.

Experiments:
[1] = tested on: Bac.Subt.ATCC 6633; assay: agar serial dilution test; type: cell-based, Bacillus subtilis; settings: Bacillus subtilis, ATCC6633, 24 h, agar serial dilution, 24 hours, 37° C.; read-out: minimal inhibitory concentration (MIC)
[2] = tested on: Staph.aureus A 321; assay: agar serial dilution test; type: cell-based, Staphylococcus aureus; settings: Staphylococcus aureus, A321, 24 h, agar serial dilution, 24 hours, 37° C.; read-out: minimal inhibitory concentration (MIC)
[3] = tested on: Staph.aureus A 2000; assay: agar serial dilution test; type: cell-based, Staphylococcus aureus; settings: Staphylococcus aureus, A2000, 24 h, agar serial dilution, 24 hours, 37° C.; read-out: minimal inhibitory concentration (MIC)
[4] = tested on: Staph.aureus A 2001; assay: agar serial dilution test; type: cell-based, Staphylococcus aureus; settings: Staphylococcus aureus, A2001, 24 h, agar serial dilution, 24 hours, 37° C.; read-out: minimal inhibitory concentration (MIC)
[5] = tested on: Strep. faec. L 80; assay: agar serial dilution test; type: cell-based, Streptococcus faecalis; settings: Enterococcus faecalis; agar serial dilution, 24 hours, 37° C.; read-out: minimal inhibitory concentration (MIC)
[6] = tested on: Dipl.pneum. L 54; assay: agar serial dilution test; type: cell-based, Diplococcus pneumoniae; settings: Streptococcus pneumoniae; agar serial dilution, 24 hours, 37° C.; read-out: minimal inhibitory concentration (MIC)
[7] = tested on: Past.multo. A 723; assay: agar serial dilution test; type: cell-based, Pasteurella multocida; settings: Pasteurella multocida; agar serial dilution, 24 hours, 37° C.; read-out: minimal inhibitory concentration (MIC)
[8] = tested on: Kleb.pneum. A 809; assay: agar serial dilution test; type: cell-based, Klebsiella pneumoniae; settings: Klebsiella pneumoniae; agar serial dilution, 24 hours, 37° C.; read-out: minimal inhibitory concentration (MIC)
[9] = tested on: Salm.dubl. P 43; assay: agar serial dilution test; type: cell-based, Salmonella dublin; settings: Salmonella enterica; agar serial dilution, 24 hours, 37° C.; read-out: minimal inhibitory concentration (MIC)
[10] = tested on: Salm.typh. R 127; assay: agar serial dilution test; type: cell-based; settings: 24 h, 37° C., read-out: minimal inhibitory concentration (MIC)
[11] = tested on: Esch.coli U 20; assay: agar serial dilution test; type: cell-based, Escherichia coli; settings: Escherichia coli
[12] = tested on: Pseud.aerug. H 10; assay: agar serial dilution test; type: cell-based; settings: agar serial dilution, 24 hours, 37° C.; read-out: minimal inhibitory concentration (MIC)
[13] = tested on: Pseud.aerug. 2396; assay: agar serial dilution test; type: cell-based; settings: agar serial dilution, 24 hours, 37° C.; read-out: minimal inhibitory concentration (MIC)
[14] = tested on: Pseud.aerug. Wyeth A 1058; assay: agar serial dilution test; type: cell-based; settings: agar serial dilution, 24 hours, 37° C.; read-out: minimal inhibitory concentration (MIC)
[15] = tested on: Prot.mirab. H 3; assay: agar serial dilution test; type: cell-based, Proteus mirabilis; settings: Proteus mirabilis; agar serial dilution, 24 hours, 37° C.; read-out: minimal inhibitory concentration (MIC)
[16] = tested on: Prot.mirab. L 93; assay: agar serial dilution test; type: cell-based, Proteus mirabilis; settings: Proteus mirabilis; agar serial dilution, 24 hours, 37° C.; read-out: minimal inhibitory concentration (MIC)
[17] = tested on: Prot.mirab. A 1200; assay: agar serial dilution test; type: cell-based, Proteus mirabilis; settings: Proteus mirabilis, 24 h, agar serial dilution, 24 hours, 37° C.; read-out: minimal inhibitory concentration (MIC)
[18] = tested on: Prot.morg. 2241; assay: agar serial dilution test; type: cell-based; settings: 24 h, agar serial dilution, 24 hours, 37° C.; read-out: minimal inhibitory concentration (MIC)
[19] = tested on: Staph.aureus A 355; assay: micro serial dilution test; type: cell-based, Staphylococcus aureus; settings: Staphylococcus aureus, A355; micro serial dilution (in brackets), about 18 hours, 30° C. or 37° C.; penicillinase-producing strain; read-out: minimal inhibitory concentration (MIC)
[20] = tested on: Staph.aureus A 2000; assay: micro serial dilution test; type: cell-based, Staphylococcus aureus; settings: Staphylococcus aureus, A2000, 18 h, micro serial dilution (in brackets), about 18 hours, 30° C. or 37° C.; read-out: minimal inhibitory concentration (MIC)
[21] = tested on: Staph.aureus A 2001; assay: micro serial dilution test; type: cell-based, Staphylococcus aureus; settings: Staphylococcus aureus, A2001, 18 h, micro serial dilution (in brackets), about 18 hours, 30° C. or 37° C.; read-out: minimal inhibitory concentration (MIC)
[22] = tested on: Prot.rettg. A 821; assay: micro serial dilution test; type: cell-based, Proteus rettgeri; settings: Providencia rettgeri; micro serial dilution (in brackets), about 18 hours, 30° C. or 37° C.; read-out: minimal inhibitory concentration (MIC)
[23] = tested on: Staph.aureus A 355; assay: agar serial dilution test; settings: Staphylococcus aureus, A355, 24 h, read-out: minimal inhibitory concentration (MIC), agar serial dilution, 24 hours, 37° C.; penicillinase-producing strain
[24] = tested on: Bruc.melit. A 488; assay: microbe, parasite or virus in culture; type: cell-based; settings: Brucella melitensis, 24 h, read-out: minimal inhibitory concentration (MIC)
[25] = tested on: Shig.equir. T 3; assay: agar serial dilution test; type: cell-based; settings: 24 h, 37° C., read-out: minimal inhibitory concentration (MIC)
[26] = tested on: Prot.rettg. A 821; assay: agar serial dilution test; type: cell-based, Proteus rettgeri; settings: Providencia rettgeri, 24 h, read-out: minimal inhibitory concentration (MIC)
[27] = tested on: Strep.haem. A 266; assay: micro serial dilution test; type: cell-based, Streptococcus haemolyticus; settings: Streptococcus; micro serial dilution (in brackets), about 18 hours, 30° C. or 37° C.; read-out: minimal inhibitory concentration (MIC)
[28] = tested on: Haem.infl. A 1030; assay: micro serial dilution test; type: cell-based; settings: 18 h, micro serial dilution (in brackets), about 18 hours, 30° C. or 37° C.; read-out: minimal inhibitory concentration (MIC)
[29] = tested on: Strep.haem. A 266; assay: agar serial dilution test; type: cell-based, Streptococcus haemolyticus; settings: Streptococcus; agar serial dilution, 24 hours, 37° C.; read-out: minimal inhibitory concentration (MIC)
[30] = blood and urine contents after intramuscular administration in rabbits; type: in vivo, rabbits "Nieuw Zeelander"; settings: rabbit, im, intramuscular 50 mg/kg
Description: (d) the blood and urine contents of the above-indicated compound G and of monosodium 7-[(3-carboxymethyl-1,2,4-oxadiazol-5-yl)acetamido]-3-acetoxymethyl-3-cephem-4-carboxylate (as prepared in example 35) were determined after intramuscular administration of these compounds in an aqueous solution in rabbits, as listed below:
test animals: rabbits "Nieuw Zeelander"
Each testgroup consisted of 3 rabbits.
Vehiculum: Physiol. saline solution
Bloodsamples were taken after 1/4--1/2--1--2--4 hours Urinesamples were taken after 1--3--6--24--27 hours (in practice only the secreted amounts after 6 and 24 hours were used).
Testorganisms: Bacillus subtilis ATCC 6633 and Bacillus callidolactis E 16.
The contents of the compounds in the samples were determined microbiologically.
(Only microbiologically detected concentrations, i.e. anti-bacterially active concentrations only have been indicated and determined in relation to the original administered compound).

[31] = U20, agar serial dilution, 24 hours, 37° C., read-out: minimal inhibitory concentration (MIC)
[32] = agar serial dilution, 24 hours, 37° C.

SMILES	MIC [1]	MIC [2]	MIC [3]	MIC [4]	MIC [5]	MIC [6]	MIC [7]	MIC [8]	MIC [9]	MIC [10]	MIC [12]	MIC [13]	MIC [14]	MIC [15]	MIC [16]	MIC [17]	MIC [18]	MIC [19]	MIC [20]	MIC [21]	other results
Cc1nnc(SCC2=C(C(=O)O)N3C(=O)[C@@H](NC(=O)Cn4cnnn4)[C@H]3SC2)s1 [Cephazolin, reference compound]	0.25 µg/mL (≈ 0.55 µM)	0.25 µg/mL (≈ 0.55 µM)	0.75 µg/mL (≈ 1.65 µM)	0.5 µg/mL (≈ 1.1 µM)	12.5 µg/mL (≈ 27.5 µM)	0.25 µg/mL (≈ 0.55 µM)	1.5 µg/mL (≈ 3.3 µM)	1.5 µg/mL (≈ 3.3 µM)	1.5 µg/mL (≈ 3.3 µM)	3 µg/mL (≈ 6.6 µM)	> 100 µg/mL	> 100 µg/mL	> 100 µg/mL	6 µg/mL (≈ 13.2 µM)	1.5 µg/mL (≈ 3.3 µM)	6 µg/mL (≈ 13.2 µM)	25 µg/mL (≈ 55 µM)	0.6 µg/mL (≈ 1.32 µM)	0.9 µg/mL (≈ 1.98 µM)	0.45 µg/mL (≈ 0.99 µM)	MIC [11, 31]: 1.5 µg/mL (≈ 3.3 µM); MIC [22]: 1.2 µg/mL (≈ 2.64 µM); MIC [23]: 1.5 µg/mL (≈ 3.3 µM)
CCc1noc(CC(=O)N[C@@H]2C(=O)N3[C@@H]2SC(C)(C)[C@@H]3C(=O)O)n1 [Example 11G, sodium 6-[(3-ethyl-1,2,4-oxadiazol-5-yl)-acetamido]-penicillanate H2 O]	0.03 µg/mL	0.12 µg/mL	1.5 µg/mL	1 µg/mL	3 µg/mL	0.25 µg/mL	1 µg/mL	> 100 µg/mL	12.5 µg/mL	25 µg/mL	> 100 µg/mL	> 100 µg/mL	> 100 µg/mL	> 100 µg/mL	12.5 µg/mL	100 µg/mL	> 100 µg/mL	30 µg/mL	23 µg/mL	3.7 µg/mL	MIC [24]: 1.5 µg/mL; MIC [11, 31]: 100 µg/mL; MIC [25]: 10 µg/mL; MIC [26, 32]: 3 µg/mL; MIC [27]: 0.5 µg/mL; MIC [28]: 125 µg/mL; MIC [23]: 3 µg/mL
Cc1nc(CC(=O)N[C@@H]2C(=O)N3C(C(=O)O)=C(CN=[N+]=[N-])C[S+]([O-])[C@H]23)no1 (some centres unmarked) [Example 19, R-sulfoxide of 7-[(5-methyl-1,2,4-oxadiazol-3-yl)-acetamido]-3-azidomethyl-3-cephem-4-carboxylic acid]	0.5 µg/mL (≈ 1.26 µM)	6 µg/mL (≈ 15.2 µM)	6 µg/mL (≈ 15.2 µM)	6 µg/mL (≈ 15.2 µM)	> 100 µg/mL	3 µg/mL (≈ 7.59 µM)	25 µg/mL (≈ 63.2 µM)	50 µg/mL (≈ 126 µM)	25 µg/mL (≈ 63.2 µM)	100 µg/mL (≈ 253 µM)	> 100 µg/mL	> 100 µg/mL	> 100 µg/mL	50 µg/mL (≈ 126 µM)	25 µg/mL (≈ 63.2 µM)	> 100 µg/mL	> 100 µg/mL	15 µg/mL (≈ 37.9 µM)	5 µg/mL (≈ 12.6 µM)	6 µg/mL (≈ 15.2 µM)	MIC [29]: 0.5 µg/mL (≈ 1.26 µM); MIC [24]: 6 µg/mL (≈ 15.2 µM); MIC [11, 31]: 100 µg/mL (≈ 253 µM); MIC [25]: 6 µg/mL (≈ 15.2 µM); MIC [26, 32]: 6 µg/mL (≈ 15.2 µM); MIC [28]: 23 µg/mL (≈ 58.2 µM); MIC [23]: 12.5 µg/mL (≈ 31.6 µM)
C=CCNC(=O)Cc1nc(CC(=O)N[C@@H]2C(=O)N3C(C(=O)O)=C(COC(C)=O)CS[C@H]23)no1 [Example 31, 7-[5-(N-propen-3-yl)-carbamoylmethyl-1,2,4-oxadiazol-3-yl-acetamido]-cephalosporanic acid]	1 µg/mL (≈ 2.09 µM)	1.5 µg/mL (≈ 3.13 µM)	3 µg/mL (≈ 6.26 µM)	3 µg/mL (≈ 6.26 µM)	25 µg/mL (≈ 52.1 µM)	1.5 µg/mL (≈ 3.13 µM)	1.5 µg/mL (≈ 3.13 µM)	6 µg/mL (≈ 12.5 µM)	6 µg/mL (≈ 12.5 µM)	12.5 µg/mL (≈ 26.1 µM)	> 100 µg/mL	> 100 µg/mL	> 100 µg/mL	25 µg/mL (≈ 52.1 µM)	6 µg/mL (≈ 12.5 µM)	25 µg/mL (≈ 52.1 µM)	> 100 µg/mL	1.9 µg/mL (≈ 3.96 µM)	1.2 µg/mL (≈ 2.5 µM)	1.2 µg/mL (≈ 2.5 µM)	MIC ([11]; U20, 24 h, read-out: minimal inhibitory concentration (MIC), agar serial dilution, 24 hours, 37° C.): 12.5 µg/mL (≈ 26.1 µM); MIC [25]: 12.5 µg/mL (≈ 26.1 µM); MIC [26]: 12.5 µg/mL (≈ 26.1 µM); MIC [27]: 2.5 µg/mL (≈ 5.21 µM); MIC [28]: ≥ 125 µg/mL; MIC [23]: 6 µg/mL (≈ 12.5 µM)
CC(=O)OCC1=C(C(=O)O)N2C(=O)[C@@H](NC(=O)Cc3nc(CC(=O)O)no3)[C@H]2SC1 [Example 35, Monosodium 7-[3-carboxymethyl-1,2,4-oxadiazol-5-yl-acetamido]-cephalosporanate]																					concentration at 0.5 h ([30]; serum, after 1/2 hr, read-out: Serumlevel): 93.7 µg/mL; concentration at 0.25 h ([30]; serum, after 1/4 hr, read-out: Serumlevel): 119 µg/mL; concentration at 1 h ([30]; serum, after 1 hr, read-out: Serumlevel): 56 µg/mL; concentration at 2 h ([30]; serum, after 2 hr, read-out: Serumlevel): 15400 ng/mL; concentration at 4 h ([30]; serum, after 4 hr, read-out: Serumlevel): 1800 ng/mL; dose excreted at 6 h ([30]; urine, after 6 hr, read-out: Secretion of compound in urine in % of the administered dose): 35.9%; dose excreted at 24 h ([30]; urine, after 24 hr, read-out: Secretion of compound in urine in % of the administered dose): 51.4%
